Test results published in patent US20260232851A1, “METHODS FOR THE DETECTION AND DIAGNOSIS OF CANCERS ASSOCIATED WITH OVEREXPRESSION OF PSMA RECEPTOR” (CLARITY PHARMACEUTICALS LIMITED, priority 2023, published 2026).

Columns and labels:
PSMA receptor = target: T1, PSMA receptor (Homo sapiens, UniProt Q04609); test: Same-day (Day 0) versus next-day (Day 1) PET imaging of patients; type: in vivo; conditions: ^18F-labelled ligand as SOC
T1 construct: localises at sites that overexpress the PSMA receptor and are indicative of a cancer; from tissue; host or cells: Primary prostate cancer and metastatic lesions (lymph node, bone, prostatic bed) in living patients
T1 sequence (Q04609 whole entry): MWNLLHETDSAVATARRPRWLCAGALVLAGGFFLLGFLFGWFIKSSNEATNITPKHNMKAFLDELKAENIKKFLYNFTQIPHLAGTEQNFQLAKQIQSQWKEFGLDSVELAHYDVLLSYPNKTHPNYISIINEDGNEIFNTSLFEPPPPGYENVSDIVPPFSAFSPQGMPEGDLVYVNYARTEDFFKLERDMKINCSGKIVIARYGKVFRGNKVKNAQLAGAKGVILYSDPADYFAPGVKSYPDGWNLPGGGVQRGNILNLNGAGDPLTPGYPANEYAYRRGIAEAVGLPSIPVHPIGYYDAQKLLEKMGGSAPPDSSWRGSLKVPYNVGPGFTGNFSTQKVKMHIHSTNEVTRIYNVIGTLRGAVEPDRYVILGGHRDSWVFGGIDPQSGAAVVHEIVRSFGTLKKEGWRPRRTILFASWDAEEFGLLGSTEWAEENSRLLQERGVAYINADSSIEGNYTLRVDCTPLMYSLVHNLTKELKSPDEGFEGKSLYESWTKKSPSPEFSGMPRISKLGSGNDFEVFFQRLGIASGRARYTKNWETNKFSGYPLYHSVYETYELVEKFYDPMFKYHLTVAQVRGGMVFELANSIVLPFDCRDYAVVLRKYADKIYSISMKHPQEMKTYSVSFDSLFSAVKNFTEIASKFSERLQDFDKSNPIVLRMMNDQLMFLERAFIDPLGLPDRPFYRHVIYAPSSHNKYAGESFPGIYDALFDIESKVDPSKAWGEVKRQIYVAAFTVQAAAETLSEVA

LNCap tumor = conditions: mouse, in vivo
Excerpt: Ex vivo tumor uptake expressed as percentage injected activitiy per gram of tissue (% lAg) (mean±/−SEM, n=3/group) in LNCap tumor bearing NSG mice following injection of either monomeric [^64Cu]Cu-SarPSMA (2 MBq, 0.9 nmol of peptide) or dimeric [^64Cu]Cu-Sar-bisPSMA (2 MBq, 0.2 nmol of peptide).

Row | Screening result on SOC PET/CT (FIG. 9A) (PSMA receptor) | SMILES | Uptake and retention at tumors, dimer versus monomer (FIG. 1) (LNCap tumor)
1 | negative/equivocal | O=C(O)CC[C@H](NC(=O)N[C@@H](CCCCNC(=O)c1ccc([18F])nc1)C(=O)O)C(=O)O [^18F-DCFPyL, DCFPyL, reference compound] | –
2 | – | CC12CNCCNCC(NC(=O)CCCC(=O)N[C@H](Cc3ccccc3)C(=O)N[C@H](Cc3ccccc3)C(=O)NCCCCCCCC(=O)NCCCC[C@H](NC(=O)N[C@@H](CCC(=O)O)C(=O)O)C(=O)O)(CNCCNC1)CNCCNC2 [^64Cu-SarPSMA, metal not drawn] | less uptake and retention
